Laboratory results reported in patent US20210300936A1, “PYRAZOLOTRIAZOLOPYRIMIDINE DERIVATIVES AS A2A RECEPTOR ANTAGONIST” (BEIGENE, LTD., priority 2018, published 2021).

The compounds below were run against human A2A receptor (A2AR) (Homo sapiens, UniProt P29274) (assay: Luciferase reporter assay (HEK293-A2AR-luc2p/CRE/Hygro cells, 3 nM CGS21680)). Details: 3 nM CGS21680, 5 h incubation.
human A2A receptor (A2AR), sequence (P29274 whole entry): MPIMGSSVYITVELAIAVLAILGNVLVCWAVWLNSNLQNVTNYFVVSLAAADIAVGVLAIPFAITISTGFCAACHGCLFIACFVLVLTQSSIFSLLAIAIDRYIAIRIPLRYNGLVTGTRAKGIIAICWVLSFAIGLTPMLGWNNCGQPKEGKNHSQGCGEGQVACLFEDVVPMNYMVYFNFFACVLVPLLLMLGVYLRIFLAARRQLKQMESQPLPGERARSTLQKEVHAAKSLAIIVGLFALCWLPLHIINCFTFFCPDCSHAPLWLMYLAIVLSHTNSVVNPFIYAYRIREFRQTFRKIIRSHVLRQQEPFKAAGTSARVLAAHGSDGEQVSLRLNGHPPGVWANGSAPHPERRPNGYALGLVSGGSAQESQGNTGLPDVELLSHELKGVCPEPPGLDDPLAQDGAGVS
Type: cell-based
Method in brief: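 Antagonist (0.1–10000 nM) and 3 nM CGS21680 were co-added for 5 h to stable HEK293-A2AR-luc2p/CRE cells, 18 h after seeding in 1% FBS medium containing adenosine deaminase. Luminescence was normalized to agonist alone (100%), and IC50 came from the dose–inhibition curve.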
COCCOc1ccc2c(c1)CN(C(=O)C(c1ccccc1)n1ncc3c1nc(N)n1nc(-c4ccco4)nc31)CC2 (stereo not shown) [Compound B14, 2-(5-amino-2-(furan-2-yl)-7H-pyrazolo[4,3-e][1,2,4]triazolo[1,5-c]pyrimidin-7-yl)-1-(7-(2-methoxyethoxy)-3,4-dihydroisoquinolin-2(1H)-yl)-2-phenylethan-1-one] gave an IC50 of 0.0057 µM.
For COCCOc1ccc2c(c1)CCN(C(=O)C(c1ccccc1)n1ncc3c1nc(N)n1nc(-c4ccco4)nc31)C2 (stereo not shown) [Compound B15, 2-(5-amino-2-(furan-2-yl)-7H-pyrazolo[4,3-e][1,2,4]triazolo[1,5-c]pyrimidin-7-yl)-1-(6-(2-methoxyethoxy)-3,4-dihydroisoquinolin-2(1H)-yl)-2-phenylethan-1-one], the IC50 was 0.0022 µM.
COCCOc1cccc2c1CN(C(=O)C(c1ccccc1)n1ncc3c1nc(N)n1nc(-c4ccco4)nc31)CC2 (stereo not shown) [Compound B16, 2-(5-amino-2-(furan-2-yl)-7H-pyrazolo[4,3-e][1,2,4]triazolo[1,5-c]pyrimidin-7-yl)-1-(8-(2-methoxyethoxy)-3,4-dihydroisoquinolin-2(1H)-yl)-2-phenylethan-1-one] gave an IC50 of 0.0056 µM.
Cc1ccc2c(c1)CN(C(=O)C(c1ccccc1)n1ncc3c1nc(N)n1nc(-c4ccco4)nc31)CC2 (stereo not shown) [Compound B17, 2-(5-amino-2-(furan-2-yl)-7H-pyrazolo[4,3-e][1,2,4]triazolo[1,5-c]pyrimidin-7-yl)-1-(7-methyl-3,4-dihydroisoquinolin-2(1H)-yl)-2-phenylethan-1-one] gave an IC50 of 0.0013 µM.
CC(C(=O)N1CCc2ccccc2C1)(c1ccccc1)n1ncc2c1nc(N)n1nc(-c3ccco3)nc21 (stereo not shown) [Compound B18, 2-(5-amino-2-(furan-2-yl)-7H-pyrazolo[4,3-e][1,2,4]triazolo[1,5-c]pyrimidin-7-yl)-1-(3,4-dihydroisoquinolin-2(1H)-yl)-2-phenylpropan-1-one] was tested, and the IC50 was 0.111 µM.
In the case of CC(C(=O)N1CCc2cc(F)ccc2C1)(c1ccccc1)n1ncc2c1nc(N)n1nc(-c3ccco3)nc21 (stereo not shown) [Compound B19, 2-(5-amino-2-(furan-2-yl)-7H-pyrazolo[4,3-e][1,2,4]triazolo[1,5-c]pyrimidin-7-yl)-1-(6-fluoro-3,4-dihydroisoquinolin-2(1H)-yl)-2-phenylpropan-1-one], the IC50 is reported as 0.112 µM.
CN(C)C(=O)C(C)(c1ccccc1)n1ncc2c1nc(N)n1nc(-c3ccco3)nc21 (stereo not shown) [Compound B20, 2-(5-amino-2-(furan-2-yl)-7H-pyrazolo[4,3-e][1,2,4]triazolo[1,5-c]pyrimidin-7-yl)-N,N-dimethyl-2-phenylpropanamide] gave an IC50 of 0.02 µM.
CC(C(=O)N1CCNCC1)(c1ccccc1)n1ncc2c1nc(N)n1nc(-c3ccco3)nc21 (stereo not shown) [Compound B21, 2-(5-amino-2-(furan-2-yl)-7H-pyrazolo[4,3-e][1,2,4]triazolo[1,5-c]pyrimidin-7-yl)-2-phenyl-1-(piperazin-1-yl)propan-1-one] showed an IC50 of 0.0967 µM.
In the case of CC(C(=O)N1CC2(COC2)C1)(c1ccccc1)n1ncc2c1nc(N)n1nc(-c3ccco3)nc21 (stereo not shown) [Compound B22, 2-(5-amino-2-(furan-2-yl)-7H-pyrazolo[4,3-e][1,2,4]triazolo[1,5-c]pyrimidin-7-yl)-2-phenyl-1-(2-oxa-6-azaspiro[3.3]heptan-6-yl)propan-1-one], the IC50 is reported as 0.016 µM.
CC(C(=O)N1CCCC1)(c1ccccc1)n1ncc2c1nc(N)n1nc(-c3ccco3)nc21 (stereo not shown) [Compound B23, 2-(5-amino-2-(furan-2-yl)-7H-pyrazolo[4,3-e][1,2,4]triazolo[1,5-c]pyrimidin-7-yl)-2-phenyl-1-(pyrrolidin-1-yl)propan-1-one] gave an IC50 of 0.0249 µM.
Compound CC(C(=O)N1CCC1)(c1ccccc1)n1ncc2c1nc(N)n1nc(-c3ccco3)nc21 (stereo not shown) [Compound B24, 2-(5-amino-2-(furan-2-yl)-7H-pyrazolo[4,3-e][1,2,4]triazolo[1,5-c]pyrimidin-7-yl)-1-(azetidin-1-yl)-2-phenylpropan-1-one] has an IC50 of 0.012 µM.
CC1(O)CCN(C(=O)C(C)(c2ccccc2)n2ncc3c2nc(N)n2nc(-c4ccco4)nc32)CC1 (stereo not shown) [Compound B25, 2-(5-amino-2-(furan-2-yl)-7H-pyrazolo[4,3-e][1,2,4]triazolo[1,5-c]pyrimidin-7-yl)-1-(4-hydroxy-4-methylpiperidin-1-yl)-2-phenylpropan-1-one] was tested, and the IC50 was 0.0237 µM.
For CC(C(=O)N1CC2(CCOCC2)C1)(c1ccccc1)n1ncc2c1nc(N)n1nc(-c3ccco3)nc21 (stereo not shown) [Compound B26, 2-(5-amino-2-(furan-2-yl)-7H-pyrazolo[4,3-e][1,2,4]triazolo[1,5-c]pyrimidin-7-yl)-2-phenyl-1-(7-oxa-2-azaspiro[3.5]nonan-2-yl)propan-1-one], the IC50 was 0.0154 µM.
With CN1CCN(C(=O)C(C)(c2ccccc2)n2ncc3c2nc(N)n2nc(-c4ccco4)nc32)CC1 (stereo not shown) [Compound B27, 2-(5-amino-2-(furan-2-yl)-7H-pyrazolo[4,3-e][1,2,4]triazolo[1,5-c]pyrimidin-7-yl)-1-(4-methylpiperazin-1-yl)-2-phenylpropan-1-one] the IC50 was 0.0303 µM.
CO[C@H]1CCCN(C(=O)C(C)(c2ccccc2)n2ncc3c2nc(N)n2nc(-c4ccco4)nc32)C1 (stereo partly drawn) [Compound B28, 2-(5-amino-2-(furan-2-yl)-7H-pyrazolo[4,3-e][1,2,4]triazolo[1,5-c]pyrimidin-7-yl)-1-((S)-3-methoxypiperidin-1-yl)-2-phenylpropan-1-one] showed an IC50 of 0.0335 µM.
CO[C@H]1CCN(C(=O)C(C)(c2ccccc2)n2ncc3c2nc(N)n2nc(-c4ccco4)nc32)C1 (stereo partly drawn) [Compound B29, 2-(5-amino-2-(furan-2-yl)-7H-pyrazolo[4,3-e][1,2,4]triazolo[1,5-c]pyrimidin-7-yl)-1-((S)-3-methoxypyrrolidin-1-yl)-2-phenylpropan-1-one] gave an IC50 of 0.0765 µM.
With CO[C@@H]1CCN(C(=O)C(C)(c2ccccc2)n2ncc3c2nc(N)n2nc(-c4ccco4)nc32)C1 (stereo partly drawn) [Compound B30, 2-(5-amino-2-(furan-2-yl)-7H-pyrazolo[4,3-e][1,2,4]triazolo[1,5-c]pyrimidin-7-yl)-1-((R)-3-methoxypyrrolidin-1-yl)-2-phenylpropan-1-one] the IC50 was 0.0973 µM.
CO[C@@H]1CCCN(C(=O)C(C)(c2ccccc2)n2ncc3c2nc(N)n2nc(-c4ccco4)nc32)C1 (stereo partly drawn) [Compound B31, 2-(5-amino-2-(furan-2-yl)-7H-pyrazolo[4,3-e][1,2,4]triazolo[1,5-c]pyrimidin-7-yl)-1-((R)-3-methoxypiperidin-1-yl)-2-phenylpropan-1-one] was tested, and the IC50 was 0.046 µM.
Compound CC(C(=O)N1CCC[C@@H](O)C1)(c1ccccc1)n1ncc2c1nc(N)n1nc(-c3ccco3)nc21 (stereo partly drawn) [Compound B32, 2-(5-amino-2-(furan-2-yl)-7H-pyrazolo[4,3-e][1,2,4]triazolo[1,5-c]pyrimidin-7-yl)-1-((R)-3-hydroxypiperidin-1-yl)-2-phenylpropan-1-one] has an IC50 of 0.111 µM.
Compound COC(=O)C1CC2(CCN(C(=O)C(C)(c3ccccc3)n3ncc4c3nc(N)n3nc(-c5ccco5)nc43)CC2)C1 (stereo not shown) [Compound B33, methyl 7-(2-(5-amino-2-(furan-2-yl)-7H-pyrazolo[4,3-e][1,2,4]triazolo[1,5-c]pyrimidin-7-yl)-2-phenylpropanoyl)-7-azaspiro[3.5]nonane-2-carboxylate] has an IC50 of 0.0165 µM.
CC(C(=O)N1CCC2(CC1)COC2)(c1ccccc1)n1ncc2c1nc(N)n1nc(-c3ccco3)nc21 (stereo not shown) [Compound B34] gave an IC50 of 0.014 µM.
For COCCOc1ccc(N2CCN(C(=O)C(C)n3cc4c(nc(N)n5nc(-c6ccco6)nc45)n3)CC2)cc1 (stereo not shown) [Compound C1, 2-(5-amino-2-(furan-2-yl)-8H-pyrazolo[4,3-e][1,2,4]triazolo[1,5-c]pyrimidin-8-yl)-1-(4-(4-(2-methoxyethoxy)phenyl)piperazin-1-yl)propan-1-one], the IC50 was 0.0284 µM.
COCCOc1ccc(N2CCN(C(=O)C(C(C)C)n3cc4c(nc(N)n5nc(-c6ccco6)nc45)n3)CC2)cc1 (stereo not shown) [Compound C2, 2-(5-amino-2-(furan-2-yl)-8H-pyrazolo[4,3-e][1,2,4]triazolo[1,5-c]pyrimidin-8-yl)-1-(4-(4-(2-methoxyethoxy)phenyl)piperazin-1-yl)-3-methylbutan-1-one] showed an IC50 of 0.648 µM.
With COCCOc1ccc(N2CCN(C(=O)C(C)(C)n3cc4c(nc(N)n5nc(-c6ccco6)nc45)n3)CC2)cc1 [Compound C3, 2-(5-amino-2-(furan-2-yl)-8H-pyrazolo[4,3-e][1,2,4]triazolo[1,5-c]pyrimidin-8-yl)-1-(4-(4-(2-methoxyethoxy)phenyl)piperazin-1-yl)-2-methylpropan-1-one] the IC50 was 1.87 µM.
Work on CCC(C(=O)N1CCN(c2ccc(OCCOC)cc2)CC1)n1cc2c(nc(N)n3nc(-c4ccco4)nc23)n1 (stereo not shown) [Compound C4, 2-(5-amino-2-(furan-2-yl)-8H-pyrazolo[4,3-e][1,2,4]triazolo[1,5-c]pyrimidin-8-yl)-1-(4-(4-(2-methoxyethoxy)phenyl)piperazin-1-yl)butan-1-one] yielded an IC50 of 0.14 µM.
Work on CCCC(C(=O)N1CCN(c2ccc(OCCOC)cc2)CC1)n1cc2c(nc(N)n3nc(-c4ccco4)nc23)n1 (stereo not shown) [Compound C5, 2-(5-amino-2-(furan-2-yl)-8H-pyrazolo[4,3-e][1,2,4]triazolo[1,5-c]pyrimidin-8-yl)-1-(4-(4-(2-methoxyethoxy)phenyl)piperazin-1-yl)pentan-1-one] yielded an IC50 of 0.132 µM.
In the case of COCCOCCOc1ccc(N2CCN(C(=O)C(C)(C)n3cc4c(nc(N)n5nc(-c6ccco6)nc45)n3)CC2)cc1 [Compound C6, 2-(5-amino-2-(furan-2-yl)-8H-pyrazolo[4,3-e][1,2,4]triazolo[1,5-c]pyrimidin-8-yl)-1-(4-(4-(2-(2-methoxyethoxy)ethoxy)phenyl)piperazin-1-yl)-2-methylpropan-1-one], the IC50 is reported as 3.18 µM.
Compound CCCC(C(=O)N1CCN(c2ccc(OCCOCCOC)cc2)CC1)n1cc2c(nc(N)n3nc(-c4ccco4)nc23)n1 (stereo not shown) [Compound C7, 2-(5-amino-2-(furan-2-yl)-8H-pyrazolo[4,3-e][1,2,4]triazolo[1,5-c]pyrimidin-8-yl)-1-(4-(4-(2-(2-methoxyethoxy)ethoxy)phenyl)piperazin-1-yl)pentan-1-one] has an IC50 of 0.186 µM.
